Here are results for 80 compounds from the METLIN SMRT retention time set (Domingo-Almenara et al. 2019).

The data set in a line: gradient 5% acetonitrile 3 min, to 50% in 2 min, to 85% in 15 min, held 3 min, 100 µL/min. The following applies: column: Zorbax Extend-C18 2.1 x 50 mm; eluents: water / acetonitrile, 0.1% formic acid. A digest of the protocol:
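The mobile phases were water and acetonitrile, each with 0.1% formic acid, pumped at 100 μL/min through a Zorbax Extend-C18 column (2.1 × 50 mm, 1.8 μm). Pure standards were injected as mixtures of ~100 molecules and detected by a quadrupole time-of-flight mass spectrometer in positive and negative ionization mode. Retention time came from computationally picked adduct peaks, each inspected by hand.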
On to `CCN1C(=O)C2(CCN(C(=O)c3ccnn3CC)CC2)c2ccccc21`, for which the RP-LC retention time is 789 s.

For `CC(C)CNC(=O)CN1CCN(Cc2ccccc2)C1=O`, the RP-LC retention time came to 717 s.

`O=C(NCc1cccs1)c1ccc2ncnc(N3CCCC3)c2c1` yielded an RP-LC retention time of 617 s.

The compound `CC(C)Cc1nc(CNC(=O)C2CCCCC2)no1` returned an RP-LC retention time of 836 s.

In the case of `Cc1ccccc1CN1CC(=O)N(c2ccccc2)[C@@H]2CS(=O)(=O)C[C@@H]21`, the RP-LC retention time worked out at 800 s.

`O=C(c1ccsc1)N1CCC2(CCC2N2CCOCC2)CC1` (stereo not given) registered an RP-LC retention time of 581 s.

The compound `O=c1n(Cc2ccccc2)nc2n1CCN(S(=O)(=O)c1ccc3c(c1)OCCO3)CC2` had an RP-LC retention time of 818 s.

Turning to `CCn1nccc1C(=O)N1CCC(n2c(-c3ccsc3)nc3cccnc32)C1` (stereo not given), the RP-LC retention time was 643 s.

`O=c1c2cc(-c3ccc4c(c3)OCO4)nn2ccn1Cc1cccc(F)c1` yielded an RP-LC retention time of 981 s.

Compound `Clc1ccc(-c2nc(N3CCCCC3)c3ccccc3n2)cc1` yielded an RP-LC retention time of 818 s.

On to `CCOc1ccc2cccc(NC(=O)c3ccc(S(=O)(=O)N(C)C)cc3)c2n1`, for which the RP-LC retention time is 1140 s.

Compound `O=C(Cn1nc2c(N3CCCCCC3)nccn2c1=O)Nc1cccc(Cl)c1` displayed an RP-LC retention time of 763 s.

`CCOC(=O)Oc1ccc2c(=O)c(Oc3cccc(OC)c3)coc2c1` came in with an RP-LC retention time of 928 s.

`Cc1nn2c(CNC(=O)c3ccco3)c(-c3ccccc3)nc2s1` registered an RP-LC retention time of 728 s.

In turn, `Cc1coc2c(C)c3oc(=O)c(CCC(=O)NCCc4ccc(S(N)(=O)=O)cc4)c(C)c3cc12` showed an RP-LC retention time of 828 s.

Take `COc1ccc(-c2noc(C3CCCN3C(=O)Nc3ccc(OC)c(OC)c3)n2)cc1` (stereo not given): the RP-LC retention time was determined as 952 s.

The compound `CC(O)c1nc2ccccc2n1CC(=O)N(c1ccccc1)C(C)C` (stereo not given) showed an RP-LC retention time of 647 s.

In turn, `Cc1oc(-c2[nH]ncc2C(=O)N(C)C)cc1S(=O)(=O)NCc1cccnc1` registered an RP-LC retention time of 559 s.

In turn, `CCOC(=O)CNC(=O)Nc1cc(F)c2nc(N3CCCC3)ccc2c1` showed an RP-LC retention time of 590 s.

`CC1CCN(CC2CCN(S(=O)(=O)c3ccc(F)c(Cl)c3)CC2)CC1`: the RP-LC retention time is 688 s.

In the case of `Cc1cc(C)cc(NS(=O)(=O)c2cc(-c3nc(C)cs3)sc2C)c1`, the RP-LC retention time stood at 1080 s.

Consider `O=C(Nc1cccn2c(C3CCC3)nnc12)c1ccncc1`, for which the RP-LC retention time was 665 s.

In the case of `CCc1ccccc1NC(=O)c1sc(-c2cn(C)c3ncccc23)nc1C`, the RP-LC retention time amounted to 971 s.

The compound `Cc1cc2c(cc3n2CC(C)(C(=O)NC2CCCCC2)N(Cc2cccnc2)C3=O)o1` (stereo not given) yielded an RP-LC retention time of 658 s.

`CCc1cccc(C)c1Nc1c(-c2ccc(C)cc2)nc2cnccn12`: the RP-LC retention time stood at 996 s.

Consider `NC(=O)c1cccn1Cc1ccccc1Cl`, for which the RP-LC retention time was 804 s.

In turn, `Cc1nc2cc(-c3noc(COc4ccc(Cl)cc4C)n3)ccc2o1` gave an RP-LC retention time of 1180 s.

On to `Cc1ccc(CNC(=O)C2CCN(Cc3cc4ccccc4n3Cc3cccc(Cl)c3)CC2)o1`, for which the RP-LC retention time stood at 943 s.

The compound `O=C(NCc1csc(-c2ccccc2)n1)C1CCN(S(=O)(=O)c2ccc(Cl)cc2)CC1` returned an RP-LC retention time of 976 s.

As for `COCCC1CCN(C(=O)C2CCN(C(C)=O)CC2)CC1`, the RP-LC retention time was 606 s.

Consider `Cc1cccc(N2CCn3c2nc2c3c(=O)n(CC(=O)O)c(=O)n2C)c1`, for which the RP-LC retention time worked out at 689 s.

For `COc1ccccc1-c1noc(C2CCCN2C(=O)Nc2ccccc2C(F)(F)F)n1` (stereo not given), the RP-LC retention time was 933 s.

As for `Cc1oc(C2CCN(C(=O)Nc3ccc4c(c3)OCCO4)CC2)nc1C(=O)N(C)C`, the RP-LC retention time worked out at 675 s.

On to `CN(C)C(=O)c1csc(S(=O)(=O)N2CCC(C(=O)Nc3ccc(F)cc3Cl)CC2)c1`, for which the RP-LC retention time stood at 792 s.

`CCOc1ccc(CN2C[C@@H]3C(=O)N(CCCN4CCCC4=O)C(=O)[C@@H]3C2)cc1` gave an RP-LC retention time of 610 s.

`Cc1cccc(Cc2c(C)nc3c(C(=O)O)cnn3c2C)c1` registered an RP-LC retention time of 788 s.

With `O=S(=O)(c1cccc(Cl)c1)N1CCC2(CCN(c3cccnc3)C2)C1` (stereo not given), the RP-LC retention time is 680 s.

With `CN(C)C(=O)c1n[nH]c2c1CN(C(=O)c1ccc(F)cc1F)CC2`, the RP-LC retention time is 629 s.

Consider `COc1ccc(NC(=O)c2cnc3c(c2)c(=O)n(C)c(=O)n3-c2ccc(C)cc2)c(OC)c1`, for which the RP-LC retention time stood at 913 s.

Compound `COc1ccc(N2CCN(c3cc(SCC(=O)Nc4ccc(OC)c(Cl)c4)ncn3)CC2)cc1` came in with an RP-LC retention time of 967 s.

For `Cc1cc(NC(=O)CCCS(=O)(=O)c2ccc(Cl)cc2)n(C)n1`, the RP-LC retention time stood at 648 s.

For the compound `O=C(CCc1c(-c2ccc(F)cc2)nc2ccccn12)NCc1ccc2c(c1)OCO2`, the RP-LC retention time worked out at 655 s.

`COC(=O)c1c(NCc2cccc(OC)c2)c2cccc(Cl)c2[nH]c1=O` gave an RP-LC retention time of 803 s.

In turn, `CC(=O)Nc1ccc(-c2noc(C3CCN(C(=O)CCc4c[nH]c5ccccc45)CC3)n2)cc1` gave an RP-LC retention time of 786 s.

As to `CSc1ccccc1C(=O)NCc1cc(-c2cccs2)on1`, the RP-LC retention time came to 796 s.

In the case of `COC(=O)c1ccc(Cl)cc1NC(=O)NCCCn1c(C(F)(F)F)nc2cccnc21`, the RP-LC retention time stood at 1020 s.

`O=C(Cc1ccccc1Br)N1CCN(c2cc(-c3ccc(Cl)cc3)[nH]n2)CC1` gave an RP-LC retention time of 939 s.

Regarding `COc1cccc(NC(=O)Cn2c(C)nc3onc(C)c3c2=O)c1`, the RP-LC retention time amounted to 708 s.

Compound `Cc1cccc(Oc2nccn3c(=O)n(CC(=O)NCCC4=CCCCC4)nc23)c1C` returned an RP-LC retention time of 1000 s.

As to `Cc1cc(NC(=O)Cn2nc(N3CCOCC3)c3ccccc3c2=O)ccc1Br`, the RP-LC retention time was found to be 884 s.

With `Cc1ccc(CNC(=O)C2CCN(S(=O)(=O)c3c(C)[nH]c(C)c3C(=O)N3CCCC3)CC2)o1`, the RP-LC retention time turned out to be 679 s.

Take `O=C(C1=CN(c2cccc(Br)c2)c2ccccc2S1(=O)=O)N1CCOCC1`: the RP-LC retention time was 788 s.

Compound `CC(C)C(=O)N1CCN(c2ccc(=O)n(-c3ccc(C(C)C)cc3)n2)CC1` showed an RP-LC retention time of 834 s.

The compound `CCSC(=O)N1c2ccc(OC)cc2C=CC1C#N` (stereo not given) yielded an RP-LC retention time of 911 s.

With `O=C(NCCC1CCCCN1S(=O)(=O)c1ccccc1)C(=O)Nc1ccccc1Cl` (stereo not given), the RP-LC retention time was found to be 1060 s.

In the case of `COc1ccc(CC(=O)NCCc2nc3cccnc3n2C)cc1`, the RP-LC retention time was 581 s.

Regarding `COC(=O)c1cccc(NC(=O)NC(C(=O)N2CCc3ccccc32)c2ccccc2)c1` (stereo not given), the RP-LC retention time is 1030 s.

`CCCn1nc(-n2cnnc2)c(NC(=O)c2cc(OC)cc(OC)c2)c1C` came in with an RP-LC retention time of 682 s.

In the case of `CN(C(=O)Cn1cnc2c(-c3ccc(Cl)cc3)csc2c1=O)c1ccc(F)cc1`, the RP-LC retention time was 1180 s.

Turning to `CCc1cccc(NC(=O)Cn2ncc3c(c2=O)N(CC2CC2)C(=O)CS3)c1`, the RP-LC retention time worked out at 859 s.

Compound `Cc1cc(C)c(S(=O)(=O)NCCn2c(C)cnc2C2CC2)c(C)c1` gave an RP-LC retention time of 647 s.

In the case of `COC(=O)c1cnc(N2CCN(c3ccccc3)CC2)c2ccccc12`, the RP-LC retention time amounted to 1160 s.

`CCCOC(=O)C1=C(C)NC2=C(C(=O)C(C(=O)OC)C(C)C2)C1c1ccc(OC)cc1` (stereo not given) returned an RP-LC retention time of 907 s.

For the compound `O=C(NC1CCCC1)C1CCCN(S(=O)(=O)c2c[nH]c(C(=O)N3CCCCCC3)c2)C1` (stereo not given), the RP-LC retention time was determined as 784 s.

As to `Cc1nc(-c2ccc3c(c2)CCN3C(=O)c2cccc(C#N)c2)cs1`, the RP-LC retention time turned out to be 906 s.

Turning to `Cc1cccc(-c2noc(CCn3nc(-c4ccc5c(c4)OCO5)ccc3=O)n2)c1`, the RP-LC retention time was determined as 976 s.

Compound `O=C(Nc1nnc(C2CC(=O)N(c3ccc(Cl)cc3)C2)o1)c1ccccc1` (stereo not given) yielded an RP-LC retention time of 752 s.

On to `Cc1c2cnn(CC(=O)NCc3ccco3)c(=O)c2c(C)n1Cc1cccc(Cl)c1`, for which the RP-LC retention time was 862 s.

`Cc1cc(C)nc(SCC(=O)Nc2cccc3ccccc23)n1` had an RP-LC retention time of 779 s.

For the compound `CCc1noc(NC(C)=O)c1-c1ccc(C)c(S(=O)(=O)Nc2ccc(C)cc2Br)c1`, the RP-LC retention time turned out to be 919 s.

`Cc1ccc(-n2c(-c3ccc(Cl)cc3)cn3c4c(=O)n(C)c(=O)n(C)c4nc23)cc1N` gave an RP-LC retention time of 870 s.

`CCc1ccc(NC(=O)Cn2c(-c3cnccn3)nc(C)c(C)c2=O)cc1` gave an RP-LC retention time of 792 s.

The compound `CCN1CCn2cc(S(=O)(=O)Nc3ccccc3F)cc2C1=O` yielded an RP-LC retention time of 1070 s.

Turning to `Cc1noc(C)c1C1CCCN1C(=O)c1ccnn1C` (stereo not given), the RP-LC retention time came out at 638 s.

`O=C(CC1CCCC1)NCC1(c2ccccc2)CCCOCC1` (stereo not given) yielded an RP-LC retention time of 872 s.

As to `N#Cc1ccsc1NC(=O)NC(c1ccccc1)c1ccccc1`, the RP-LC retention time is 947 s.

`O=C(Nc1nc2c(s1)CN(S(=O)(=O)C1CC1)CC2)c1cnn(-c2ccccc2)n1` registered an RP-LC retention time of 855 s.

Consider `O=C(NCc1ccco1)C1CCCN(C(=O)c2cccn2-c2cccnc2)C1` (stereo not given), for which the RP-LC retention time came to 600 s.

As for `CCOc1cc(=O)n2c(c1C(=O)NC(C)C)CCCCC2`, the RP-LC retention time came to 623 s.

`CSc1nc2cc(Oc3cccc(Cl)c3Cl)c(Cl)cc2[nH]1` yielded an RP-LC retention time of 1080 s.
